Assays:
[1] = test system: S. aureus Newman; test: fitness (endpoint OD595 vs no drug) (fraction); higher = more growth
How it was run: (§1)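 Bacterial fitness was scored as optical density at the stationary-phase transition relative to the robust mean of no-drug control wells. Scores are capped at 1. The growth data were OD595 readings every 30 min for 14 h at 37 °C, background-subtracted against the first reading, from 384-well plates inoculated at OD595 0.01 in TSB, LB Lennox or CY.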

[2] = test system: S. aureus DSM 20231; test: as above
How it was run: as §1

[3] = test system: B. subtilis 168; test: as above
How it was run: as §1

[4] = test system: S. pneumoniae D39V; test: as above
How it was run: as §1

[5] = test system: S. aureus Newman; test: Bliss interaction score (quartile over a dose matrix) (fitness difference); higher = more antagonism (negative = synergy)
How it was run: (§2)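 Fitness here means normalised growth, inferred for single drugs from the combination data. Growth was OD595 at entry into stationary phase, divided by the plate's robust no-drug mean and capped at 1. The Bliss score is observed minus expected fitness, with the expectation being the product, and its quartiles span technical, biological and donor/recipient replicates.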

[6] = test system: S. aureus DSM 20231; test: as above
How it was run: as §2

[7] = test system: B. subtilis 168; test: as above
How it was run: as §2

[8] = test system: S. pneumoniae D39V; test: as above
How it was run: as §2
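Wherever Bliss interaction score (quartile over a dose matrix) is given: first quartile when negative (synergy) and third quartile when positive (antagonism).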
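Wherever fitness (endpoint OD595 vs no drug) is given: OD595 on entry to stationary phase over no-drug wells; at most 1.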

O=C(O[C@@H]1Cc2c(O)cc(O)cc2O[C@@H]1c1cc(O)c(O)c(O)c1)c1cc(O)c(O)c(O)c1 [EGCG] + Cc1ncc([N+](=O)[O-])n1CCO [Metronidazole]
fitness
Conditions	partner 0.625 µg/mL	partner 1.073 µg/mL	partner 1.25 µg/mL	partner 2.145 µg/mL	partner 2.5 µg/mL	partner 4.29 µg/mL	partner 5 µg/mL
[1], first compound 12.5 µg/mL	0.833	–	0.847	–	0.809	–	–
[1], first compound 25 µg/mL	0.833	–	0.807	–	0.785	–	–
[1], first compound 50 µg/mL	0.769	–	0.747	–	0.736	–	–
[2], first compound 12.5 µg/mL	0.853	–	0.787	–	0.795	–	–
[2], first compound 25 µg/mL	0.792	–	0.807	–	0.838	–	–
[2], first compound 50 µg/mL	0.779	–	0.753	–	0.841	–	–
[3], first compound 6.25 µg/mL	0.969	–	0.944	–	0.928	–	–
[4], first compound 12.5 µg/mL	–	0.888	0.956	0.493	0.982	0.825	0.976
[4], first compound 25 µg/mL	–	0.839	0.979	–	≥ 1	–	0.984
[4], first compound 50 µg/mL	–	0.803	0.813	0.391	0.949	0.602	0.907

fitness, [1], one replicate
Conditions	first compound 12.5 µg/mL	first compound 25 µg/mL	first compound 50 µg/mL
partner 0.781 µg/mL	0.781	0.807	0.943
partner 1.562 µg/mL	0.8	0.833	≥ 1
partner 3.124 µg/mL	0.782	0.81	0.963

Conditions	Bliss interaction score
[5]	0.0648
[6]	-0.112
[7]	-0.039
[8]	-0.0826

O=C(O[C@@H]1Cc2c(O)cc(O)cc2O[C@@H]1c1cc(O)c(O)c(O)c1)c1cc(O)c(O)c(O)c1 [EGCG] + Cc1onc(-c2ccccc2)c1C(=O)N[C@@H]1C(=O)N2[C@@H]1SC(C)(C)[C@@H]2C(=O)O [Oxacillin]
fitness
Conditions	first compound 6.25 µg/mL	first compound 12.5 µg/mL	first compound 25 µg/mL	first compound 50 µg/mL
[1], partner 0.0156 µg/mL	–	0.591	0.605	–
[1], partner 0.0312 µg/mL	–	0.624	0.681	–
[1], partner 0.0625 µg/mL	–	0.59	0.636	–
[2], partner 0.0156 µg/mL	–	0.645	0.582	0.62
[2], partner 0.0312 µg/mL	–	0.498	0.548	–
[2], partner 0.0625 µg/mL	–	0.442	0.393	0.34
[3], partner 0.002 µg/mL	0.935	–	0.202	–
[3], partner 0.004 µg/mL	0.924	0.538	0.205	–
[3], partner 0.008 µg/mL	0.898	0.525	0.186	–
[4], partner 0.005 µg/mL	–	0.989	0.973	≥ 1
[4], partner 0.01 µg/mL	–	0.924	0.903	0.966
[4], partner 0.02 µg/mL	–	0.929	0.947	0.923
[4], partner 0.04 µg/mL	–	0.474	0.576	0.632

fitness, [3], one replicate
Conditions	partner 0.0078 µg/mL	partner 0.0155 µg/mL	partner 0.031 µg/mL	partner 0.075 µg/mL	partner 0.15 µg/mL	partner 0.3 µg/mL
first compound 6.25 µg/mL	0.998	0.978	0.972	0.515	0.0556	0.0544
first compound 12.5 µg/mL	0.858	0.852	0.792	0.444	0.0247	0.0417
first compound 25 µg/mL	0.602	0.559	0.434	0.139	0.0233	0.024

Conditions	Bliss interaction score
[5]	0.0991
[6]	-0.0707
[7]	-0.0648
[8]	0.0942

COc1c(N2C[C@@H]3CCCN[C@@H]3C2)c(F)cc2c(=O)c(C(=O)O)cn(C3CC3)c12 [Moxifloxacin] + CC1=C\[C@@H](O)CC(=O)Cc2nc(co2)C(=O)N2CCC=C2C(=O)O[C@H](C(C)C)[C@H](C)/C=C/C(=O)NC\C=C\1 [Virginiamycin M1]
Conditions	fitness
[1], first compound 0.0075 µg/mL, partner 0.0625 µg/mL	0.764
[1], first compound 0.0075 µg/mL, partner 0.125 µg/mL	0.762
[1], first compound 0.0075 µg/mL, partner 0.25 µg/mL	0.795
[1], first compound 0.015 µg/mL, partner 0.0625 µg/mL	0.545
[1], first compound 0.015 µg/mL, partner 0.125 µg/mL	0.556
[1], first compound 0.015 µg/mL, partner 0.25 µg/mL	0.517
[1], first compound 0.03 µg/mL, partner 0.0625 µg/mL	0.0697
[1], first compound 0.03 µg/mL, partner 0.125 µg/mL	0.0796
[1], first compound 0.03 µg/mL, partner 0.25 µg/mL	0.0787
[2], first compound 0.0075 µg/mL, partner 0.0625 µg/mL	0.812
[2], first compound 0.0075 µg/mL, partner 0.125 µg/mL	0.901
[2], first compound 0.0075 µg/mL, partner 0.25 µg/mL	0.81
[2], first compound 0.015 µg/mL, partner 0.0625 µg/mL	0.702
[2], first compound 0.015 µg/mL, partner 0.125 µg/mL	0.72
[2], first compound 0.015 µg/mL, partner 0.25 µg/mL	0.776
[2], first compound 0.03 µg/mL, partner 0.0625 µg/mL	0.609
[2], first compound 0.03 µg/mL, partner 0.125 µg/mL	0.67
[2], first compound 0.03 µg/mL, partner 0.25 µg/mL	0.662
[3], first compound 0.0312 µg/mL, partner 0.0625 µg/mL	0.0441
[3], first compound 0.0312 µg/mL, partner 0.125 µg/mL	0.0556
[3], first compound 0.0312 µg/mL, partner 0.25 µg/mL	0.0499
[3], first compound 0.0625 µg/mL, partner 0.0625 µg/mL	0.0365
[3], first compound 0.0625 µg/mL, partner 0.125 µg/mL	0.0573
[3], first compound 0.0625 µg/mL, partner 0.25 µg/mL	0.0434
[3], first compound 0.125 µg/mL, partner 0.0625 µg/mL	0.044
[3], first compound 0.125 µg/mL, partner 0.125 µg/mL	0.0517
[3], first compound 0.125 µg/mL, partner 0.25 µg/mL	0.0468
[3], first compound 2 µg/mL, partner 0.0625 µg/mL	0.0224
[3], first compound 2 µg/mL, partner 0.125 µg/mL	0.0234
[3], first compound 2 µg/mL, partner 0.25 µg/mL	0.0324
[3], first compound 4 µg/mL, partner 0.0625 µg/mL	0.0209
[3], first compound 4 µg/mL, partner 0.125 µg/mL	0.0242
[3], first compound 4 µg/mL, partner 0.25 µg/mL	0.0192
[3], first compound 8 µg/mL, partner 0.0625 µg/mL	0.0121
[3], first compound 8 µg/mL, partner 0.125 µg/mL	0.0128
[3], first compound 8 µg/mL, partner 0.25 µg/mL	0.0206
[4], first compound 0.0037 µg/mL, partner 2 µg/mL	0.802
[4], first compound 0.005 µg/mL, partner 0.5 µg/mL	0.999
[4], first compound 0.005 µg/mL, partner 1 µg/mL	≥ 1
[4], first compound 0.005 µg/mL, partner 2 µg/mL	0.99
[4], first compound 0.0075 µg/mL, partner 2 µg/mL	0.869
[4], first compound 0.01 µg/mL, partner 0.5 µg/mL	≥ 1
[4], first compound 0.01 µg/mL, partner 1 µg/mL	0.992
[4], first compound 0.01 µg/mL, partner 2 µg/mL	0.979
[4], first compound 0.015 µg/mL, partner 2 µg/mL	0.811
[4], first compound 0.02 µg/mL, partner 0.5 µg/mL	0.981
[4], first compound 0.02 µg/mL, partner 1 µg/mL	0.995
[4], first compound 0.02 µg/mL, partner 2 µg/mL	0.963

one replicate
Conditions	fitness
[1], first compound 0.0075 µg/mL, partner 0.5 µg/mL	0.659
[1], first compound 0.0075 µg/mL, partner 1 µg/mL	0.758
[1], first compound 0.0075 µg/mL, partner 2 µg/mL	0.665
[1], first compound 0.015 µg/mL, partner 0.5 µg/mL	0.654
[1], first compound 0.015 µg/mL, partner 1 µg/mL	0.643
[1], first compound 0.015 µg/mL, partner 2 µg/mL	0.579
[1], first compound 0.03 µg/mL, partner 0.5 µg/mL	0.465
[1], first compound 0.03 µg/mL, partner 1 µg/mL	0.414
[1], first compound 0.03 µg/mL, partner 2 µg/mL	0.323
[2], first compound 0.0075 µg/mL, partner 0.5 µg/mL	0.785
[2], first compound 0.0075 µg/mL, partner 1 µg/mL	0.81
[2], first compound 0.015 µg/mL, partner 0.5 µg/mL	0.787
[2], first compound 0.015 µg/mL, partner 1 µg/mL	0.793
[2], first compound 0.03 µg/mL, partner 0.5 µg/mL	0.693
[2], first compound 0.03 µg/mL, partner 1 µg/mL	0.734
[2], first compound 0.06 µg/mL, partner 0.0625 µg/mL	0.686
[2], first compound 0.06 µg/mL, partner 0.125 µg/mL	0.695
[2], first compound 0.06 µg/mL, partner 0.25 µg/mL	0.69
[2], first compound 0.12 µg/mL, partner 0.0625 µg/mL	0.462
[2], first compound 0.12 µg/mL, partner 0.125 µg/mL	0.471
[2], first compound 0.12 µg/mL, partner 0.25 µg/mL	0.46
[4], first compound 0.0037 µg/mL, partner 0.15 µg/mL	0.808
[4], first compound 0.0037 µg/mL, partner 0.3 µg/mL	0.758
[4], first compound 0.0037 µg/mL, partner 0.5 µg/mL	0.97
[4], first compound 0.0037 µg/mL, partner 1 µg/mL	0.95
[4], first compound 0.0075 µg/mL, partner 0.15 µg/mL	0.911
[4], first compound 0.0075 µg/mL, partner 0.3 µg/mL	0.877
[4], first compound 0.0075 µg/mL, partner 0.5 µg/mL	0.965
[4], first compound 0.0075 µg/mL, partner 1 µg/mL	0.934
[4], first compound 0.015 µg/mL, partner 0.15 µg/mL	0.832
[4], first compound 0.015 µg/mL, partner 0.3 µg/mL	0.843
[4], first compound 0.015 µg/mL, partner 0.5 µg/mL	0.933
[4], first compound 0.015 µg/mL, partner 1 µg/mL	0.873

Conditions	Bliss interaction score
[5]	-0.0536
[6]	-0.0567
[7]	-0.0191
[8]	0.065

From the supplement of paper PMC10627819
